This experiment deals with T1, 14-3-3ζ/p65 peptide (Homo sapiens, UniProt P63104).
T1 construct: made in house; host or cells: NiCo21 (DE3) E. coli
The experiment in a line: FA peptide screen, 14-3-3ζ titration to client peptide and compound: p65. Format: binding. The settings on record: 250 μM compound, 100 nM peptide; +1 Ile. The method, then:
Since the hub protein 14-3-3 binds to hundreds of phosphoprotein partners, selectivity of PPI stabilization is a major challenge. The interplay of chemical reactivity, and the topology and functionality of the composite binding pocket shaped by 14-3-3 and Tau potentially provide entries towards selective stabilization. […] Here, 14-3-3ζ was titrated to a constant concentration of client peptide (100 nM) and compound (250 μM) to determine the SF250μM values for the particular 14-3-3 PPI. A variety of 14-3-3 binding proteins was represented in this client panel whereby the size and hydrophobicity of the +1 amino acid were varied. […]
chromatography (HisTrap high performance cartridges, Cytiva). […] Dialyzed protein was concentrated to ∼40 mg/mL, analyzed by Q -Tof LC/MS, and aliquots were flash -frozen for storage at −80 °C. […]
0.1% (v/v) Tween20, 0.1% (w/v) BSA). […] Measurements were performed directly after plate preparation, using a Tecan SPARK plate reader at room temperature ( λex: 485±20 nm; λem: 535±25 nm; mirror: automatic; flashes: 30; settle time: 1 ms; gain: optimal; Z -position: calculated from well). […] All data were analyzed using GraphPad Prism (10.0.1) and fitted with a four -parameter logistic model (4PL) to determine binding affinities (dissociation constant, KD). […]
Fluorescence Anisotropy – peptide screen […]

This is an account of results in publication PMC11892739, “Site-specific molecular glues for the 14-3-3/Tau pS214 protein–protein interaction via reversible covalent imine tethering” (RSC Medicinal Chemistry, 2025).

Molecules are shown by their SMILES.

T1 sequence (P63104 whole entry, other chains not shown): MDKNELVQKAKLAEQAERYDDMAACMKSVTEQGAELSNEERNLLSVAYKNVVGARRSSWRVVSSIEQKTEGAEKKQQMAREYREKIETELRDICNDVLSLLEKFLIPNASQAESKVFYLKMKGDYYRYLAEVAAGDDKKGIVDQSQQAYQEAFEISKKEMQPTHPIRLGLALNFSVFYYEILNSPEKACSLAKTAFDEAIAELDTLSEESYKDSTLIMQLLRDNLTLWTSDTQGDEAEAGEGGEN

For `CCc1ccc(-c2nccn2-c2ccc(C=O)c(Br)c2)cc1` [Compound 18], the “stabilization of 14-3-3/p65 peptide (in words)” value is given as “minor off-target effects”.
